Laboratory results as given in publication PMC11874750, “Inhibitory effect of fermented avocado seed extract (Persea americana Mill. cv. Hass) on polyphenol oxidase and its application as anti-browning agent in avocado, apple, and banana pulps” (Heliyon, 2025).

System: T1, polyphenol oxidase (PPO), crude PPO extract of Hass avocado pulp
T1 construct: isoenzyme not identified
Assay: absorbance at […] nm, Lineweaver-Burk
Assay type: biochemical, Persea americana
Settings: phosphate buffer pH 7.0, catechol 2.7-44.5 mM, also printed as 0.1627 g/L, no inhibitor

`Oc1ccccc1O` [catechol] showed a Km of 1480 µM.
